US6303630A, “Diarylsulfone non-nucleoside reverse transcriptase inhibitors of human immunodeficiency virus” (University of the Sciences in Philadelphia, priority 2000, dated 2001)
pEC50, pIC50: −log10 of the molar value. Read-outs that look alike come from different tables or passages of the source.

Tests used:
HIV-1 = test: NCI in vitro anti-HIV drug screen: XTT-formazan assay, protection of T4 lymphocytes (CEM) from HIV-1 cytopathic effects; format: cell-based, human immunodeficiency virus (HIV-1); details: for pEC50 / inhibition at 200 µM / inhibition at 2 µM / inhibition at 0.2 µM / inhibition at 0.634 µM / inhibition at 0.0635 µM / inhibition at 20 µM / inhibition at 63.2 µM / inhibition at 6.33 µM: Human immunodeficiency virus 1, CCRF-CEM; for pEC50: 144 h, HIV-1 infected CEM cells, 6 days, XTT, approximate values, read-out: EC50 (50% effective concentration against HIV cytopathic effects); for inhibition at 200 µM / activity at 200 µM: dose 2.00 × 10^-4 Molar; for inhibition at 2 µM / activity at 2 µM: dose 2.00 × 10^-6 Molar; for inhibition at 0.2 µM / activity at 0.2 µM: dose 2.00 × 10^-7 Molar; for activity at 200 µM / activity at 20 µM / activity at 2 µM / activity at 0.2 µM / activity at 63.2 µM / activity at 6.33 µM / activity at 0.634 µM / activity at 0.0635 µM: Human immunodeficiency virus 1, Lymphocyte, read-out: Percent of Control, Infected; for TI50 (IC/EC), Therapeutic Index: IC50/EC50
Method: Compounds of the present invention were evaluated for anti-HIV efficacy by the National Cancer Institute's (NCI) In Vitro Anti AIDS Drug Discovery Program.
(§1) The NCI procedure is fully described, for example, in a bulletin provided by the National Institutes of Health, National Cancer Institute, Bethesda, Md. 20892, all of which is incorporated herein by reference. As related in the NCI bulletin, the procedure is based on O. W. Weislow et al., "New soluble-formazan assay for HIV-1 cytopathic effects: application to high flux screening of synthetic and natural products for AIDS-antiviral activity", J. Natl. Cancer Inst. 81:577-586 (1989), and is used to test for compounds active against human immunodeficiency virus (HIV), and is designed to detect compounds active at any stage of the virus reproductive cycle. As further related in the NCI bulletin, the assay includes killing of T4 lymphocytes by HIV. Amounts of HIV are added to cells, with a minimum of two cycles of virus reproduction found to be necessary to obtain the required cell killing. Compounds that interact with virions, cells, or virus gene-products to interfere with viral activities will protect cells from cytolysis. All were compared with a positive (e.g., AZT-treated) control evaluation at the same time under identical conditions. The procedure is set forth as follows:
(§2) A candidate compound is first dissolved in a suitable solvent, preferably dimethyl sulfoxide, then diluted 1:100 in cell culture medium before preparing serial half-log10 dilutions. T4 lymphocytes (CEM cell line) are then added and after a brief interval HIV-1 is added, resulting in a 1:200 final dilution of the compound. Uninfected cells with the compound serve as a toxicity control, and infected and uninfected without the compound serve as basic controls. Cultures are then incubated at 37° in a 5% carbon dioxide atmosphere for 6 days. The tetrazolium salt, XTT, is added to all wells, and cultures are incubated to allow formazan color development by viable cells. Individual wells are analyzed spectrophotometrically to quantitate formazan product, and in addition are viewed microscopically for detection of viable cells and confirmation of protective activity. Drug-treated virus-infected cells are compared with drug-treated noninfected cells and with other appropriate controls (untreated infected and untreated noninfected cells, drug-containing wells without cells, etc.) on the same plate. Data are reviewed in comparison with other tests performed at the same time and a determination as to activity is made.

[1] = tested on: T4 lymphocytes (CEM cell line); test: Cell growth / toxicity control in uninfected T4 lymphocytes (CEM), XTT-formazan; format: cell-based; details: Homo sapiens, CCRF-CEM; for pIC50: 144 h, approximate values; for activity at 200 µM: dose 2.00 × 10^-4 Molar; for activity at 200 µM / activity at 20 µM / activity at 2 µM / activity at 0.2 µM / activity at 63.2 µM / activity at 6.33 µM / activity at 0.634 µM / activity at 0.0635 µM: read-out: Percent of Control, Uninfected; for activity at 20 µM: dose 2.00 × 10^-5 Molar; for activity at 2 µM: dose 2.00 × 10^-6 Molar; for activity at 0.2 µM: dose 2.00 × 10^-7 Molar; for activity at 63.2 µM: dose 6.32 × 10^-5 Molar; for activity at 6.33 µM: dose 6.33 × 10^-6 Molar; for activity at 0.634 µM: dose 6.34 × 10^-7 Molar; for activity at 0.0635 µM: dose 6.35 × 10^-8 Molar
Excerpt: as §1, §2

[2] = read-out: Percent of Protection
[3] = dose 6.34 × 10^-7 Molar, read-out: Percent of Protection
[4] = dose 6.35 × 10^-8 Molar, read-out: Percent of Protection
[5] = uninfected CEM cells, 6 days, XTT, read-out: IC50 (50% inhibitory concentration for cell growth)
[6] = dose 2.00 × 10^-5 Molar, read-out: Percent of Protection
[7] = dose 6.32 × 10^-5 Molar, read-out: Percent of Protection
[8] = dose 6.33 × 10^-6 Molar, read-out: Percent of Protection

CN(c1ccccc1Cl)S(=O)(=O)c1ccccc1[N+](=O)[O-] [Compound 38, N-(2-nitrophenylsulfonyl)-2chloro-N-methylaniline]
pEC50 (HIV-1): 5.36
inhibition at 200 µM (HIV-1; [2]): 2.73%
inhibition at 2 µM (HIV-1; [2]): 10.4%
inhibition at 0.2 µM (HIV-1; [2]): 2.73%
inhibition at 0.634 µM (HIV-1; [3]): -0.31%
inhibition at 0.0635 µM (HIV-1; [4]): -0.27%
inhibition at 20 µM (HIV-1; read-out: Percent of Protection, dose 2.00 × 10^-5 Molar): 61.9%
inhibition at 63.2 µM (HIV-1; read-out: Percent of Protection, dose 6.32 × 10^-5 Molar): -0.27%
inhibition at 6.33 µM (HIV-1; read-out: Percent of Protection, dose 6.33 × 10^-6 Molar): 69%
activity at 200 µM (HIV-1): 28.4%
activity at 20 µM (HIV-1; dose 2.00 × 10^-5 Molar): 63.8%
activity at 2 µM (HIV-1): 14.9%
activity at 0.2 µM (HIV-1): 7.25%
activity at 63.2 µM (HIV-1; dose 6.32 × 10^-5 Molar): 26.1%
activity at 6.33 µM (HIV-1; dose 6.33 × 10^-6 Molar): 70.6%
activity at 0.634 µM (HIV-1; dose 6.34 × 10^-7 Molar): 4.71%
activity at 0.0635 µM (HIV-1; dose 6.35 × 10^-8 Molar): 4.74%
TI50 (IC/EC), Therapeutic Index (HIV-1): 7.79 × 10^0
pIC50 [1, 5]: 4.47
activity at 200 µM [1]: 3.62%
activity at 20 µM [1]: 75.7%
activity at 2 µM [1]: 98.2%
activity at 0.2 µM [1]: 99.3%
activity at 63.2 µM [1]: 20.3%
activity at 6.33 µM [1]: 94.2%
activity at 0.634 µM [1]: 98.6%
activity at 0.0635 µM [1]: 101%

O=S(=O)(c1ccccc1)c1cccc2c1NCCC2 [Compound 45, 8-(phenylsulfonyl)-1,2,3,4-tetrahydroquinoline]
pEC50 (HIV-1): 4.85
inhibition at 200 µM (HIV-1; [2]): 42.2%
inhibition at 20 µM (HIV-1; [6]): 67%
inhibition at 2 µM (HIV-1; [2]): 2.49%
inhibition at 0.2 µM (HIV-1; [2]): 0.38%
inhibition at 63.2 µM (HIV-1; [7]): 59.8%
inhibition at 6.33 µM (HIV-1; [8]): 13.3%
inhibition at 0.634 µM (HIV-1; read-out: Percent of Protection, dose 6.34 × 10^-7 Molar): 0.22%
inhibition at 0.0635 µM (HIV-1; read-out: Percent of Protection, dose 6.35 × 10^-8 Molar): -1.54%
activity at 200 µM (HIV-1): 43.3%
activity at 20 µM (HIV-1; dose 2.00 × 10^-5 Molar): 67.7%
activity at 2 µM (HIV-1): 4.44%
activity at 0.2 µM (HIV-1): 2.37%
activity at 63.2 µM (HIV-1; dose 6.32 × 10^-5 Molar): 60.6%
activity at 6.33 µM (HIV-1; dose 6.33 × 10^-6 Molar): 15.1%
activity at 0.634 µM (HIV-1; dose 6.34 × 10^-7 Molar): 2.22%
activity at 0.0635 µM (HIV-1; dose 6.35 × 10^-8 Molar): 0.49%
TI50 (IC/EC), Therapeutic Index (HIV-1): 1.43 × 10^+1
pIC50 ([1]; read-out: IC50 (50% inhibitory concentration for cell growth), uninfected CEM cells, 6 days, XTT): < 3.70
activity at 200 µM [1]: 62.1%
activity at 20 µM [1]: 101%
activity at 2 µM [1]: 93.3%
activity at 0.2 µM [1]: 84.2%
activity at 63.2 µM [1]: 74.2%
activity at 6.33 µM [1]: 94.3%
activity at 0.634 µM [1]: 89.7%
activity at 0.0635 µM [1]: 87.2%

O=[N+]([O-])c1ccccc1S(=O)(=O)c1cccc2c1NCCC2 [Compound 46, 8-(2-nitrophenylsulfonyl)-1,2,3,4-tetrahydroquinoline]
pEC50 (HIV-1): 5.88
inhibition at 200 µM (HIV-1; [2]): -0.28%
inhibition at 20 µM (HIV-1; [6]): 76.4%
inhibition at 2 µM (HIV-1; [2]): 69.4%
inhibition at 0.2 µM (HIV-1; [2]): 6.11%
inhibition at 63.2 µM (HIV-1; [7]): 33.6%
inhibition at 6.33 µM (HIV-1; [8]): 89.1%
inhibition at 0.634 µM (HIV-1; [3]): 16.3%
inhibition at 0.0635 µM (HIV-1; [4]): -1.64%
activity at 200 µM (HIV-1): 1.73%
activity at 20 µM (HIV-1; dose 2.00 × 10^-5 Molar): 76.8%
activity at 2 µM (HIV-1): 70%
activity at 0.2 µM (HIV-1): 7.99%
activity at 63.2 µM (HIV-1; dose 6.32 × 10^-5 Molar): 35%
activity at 6.33 µM (HIV-1; dose 6.33 × 10^-6 Molar): 89.3%
activity at 0.634 µM (HIV-1; dose 6.34 × 10^-7 Molar): 17.9%
activity at 0.0635 µM (HIV-1; dose 6.35 × 10^-8 Molar): 0.39%
TI50 (IC/EC), Therapeutic Index (HIV-1): 3.78 × 10^+1
pIC50 [1, 5]: 4.30
activity at 200 µM [1]: 1.77%
activity at 20 µM [1]: 95.8%
activity at 2 µM [1]: 95.4%
activity at 0.2 µM [1]: 98.9%
activity at 63.2 µM [1]: 38.1%
activity at 6.33 µM [1]: 94%
activity at 0.634 µM [1]: 100%
activity at 0.0635 µM [1]: 98.9%
